The numbers were not newly measured in patent US20210353783A1, “IMAGING AGENTS FOR RADIOLABELING EXOGENOUS AND ENDOGENOUS ALBUMIN” (CENTURION BIOPHARMA CORPORATION, priority 2018, published 2021), which cites them from elsewhere.

The conditions of data set [1]: human, after intravenous administration, bound to cysteine-34 of endogenous albumin.
The conditions of data set [2]: phase 1-3 clinical trials.
Data set [3] deals with circulating albumin (Homo sapiens, UniProt P02768).
Chain of circulating albumin (P02768 25-609): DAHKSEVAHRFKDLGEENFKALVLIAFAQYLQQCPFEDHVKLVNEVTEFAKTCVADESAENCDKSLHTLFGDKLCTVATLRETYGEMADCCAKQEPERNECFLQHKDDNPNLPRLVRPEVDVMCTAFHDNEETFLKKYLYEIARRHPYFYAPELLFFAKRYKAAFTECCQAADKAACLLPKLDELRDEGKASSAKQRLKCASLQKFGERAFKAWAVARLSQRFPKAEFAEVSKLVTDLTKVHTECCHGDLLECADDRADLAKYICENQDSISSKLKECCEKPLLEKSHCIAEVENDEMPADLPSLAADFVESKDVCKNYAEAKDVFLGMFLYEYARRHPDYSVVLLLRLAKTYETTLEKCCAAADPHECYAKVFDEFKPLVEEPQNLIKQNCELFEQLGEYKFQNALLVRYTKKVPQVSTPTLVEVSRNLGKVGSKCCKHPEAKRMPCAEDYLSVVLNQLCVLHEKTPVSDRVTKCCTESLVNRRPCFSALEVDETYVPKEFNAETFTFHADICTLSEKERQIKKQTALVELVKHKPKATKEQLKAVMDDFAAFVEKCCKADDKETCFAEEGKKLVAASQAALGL

For `COc1cccc2c1C(=O)c1c(O)c3c(c(O)c1C2=O)C[C@@](O)(/C(CO)=N/NC(=O)CCCCCN1C(=O)C=CC1=O)C[C@@H]3O[C@H]1C[C@H](N)[C@H](O)[C@H](C)O1` [aldoxorubicin, (6-maleimidocaproyl)hydrazone derivative of doxorubicin], the t1/2 in man in data set [1] was 20 to 21 h. For the same compound, in data set [2], the cardiotoxicity result is given as “lack of cardiotoxicity” and the “increase in the maximum tolerated dose (MTD) compared to conventional doxorubicin” value is recorded as 3.5 fold. Also, the “binding to circulating albumin” value in data set [3] was “rapidly and selectively bound to circulating albumin within a few minutes”.
